Source: patent publication US20140171419A1, “ENHANCEMENT OF CELLULAR TRANSPLANTATION USING SMALL MOLECULE MODULATORS HEPATOCYTE GROWTH FACTOR (SCATTER FACTOR) ACTIVITY” (ANGION BIOMEDICA CORP, priority 2009, published 2014)

Test system: primary human hepatocytes
Assay: BrdU cell proliferation assay in cryopreserved primary human hepatocytes
Assay type: cell-based
Details: 50 ng/ml, overnight treatment, 4 hour BrdU incubation; control 0.032±0.011
Protocol: Cryopreserved primary human hepatocytes (CellzDirect catalog #[…], Lot # Hu0948) were plated on a collagen-coated 96 well plate according to the supplier's instructions and allowed to adhere and stabilize for 48 hours. Cells were treated with a compound of formula (II) embodied herein (10 μM final concentration) or HGF (50 ng/ml) overnight, and the next day, cell proliferation was determined using a BrdU assay (Chemicon, catalog #2750) according to the manufacturer's instructions, with a 4 hour incubation period of BrdU. Plates were read at 450 and 550 (background) nm and the difference was taken as an indicator of cell proliferation. Both test compound and HGF stimulated the BrdU incorporation in hepatocytes vs. control: test compound, 0.336±0.072; HGF, 0.388±0.134; and control, 0.032±0.011. Hepatocytes enhanced using the compounds of the invention can be used subsequently for cellular transplant into a human recipient, providing enhanced cell survival and numbers to increase the quality of the cells used in the transplant, the survival of cells after transplant and reduce the number of cells required to achieve the desired outcome of the transplant procedure and restoring or enhancing hepatic function in the recipient.

HGF: hepatocyte growth factor (scatter factor), a pleiotropic growth factor, used as positive comparator
BrdU incorporation (difference of plate readings at 450 and 550 (background) nm, indicator of cell proliferation): 0.388±0.134
